The source of these data is patent publication US20230391758A1, “MODIFIED BENZOFURAN-CARBOXAMIDES AS GLUCOSYLCERAMIDE SYNTHASE INHIBITORS” (MERCK SHARP & DOHME CORP., priority 2020, published 2023).

The assay concerns the target GCS enzyme (glucosylceramide synthase) contained within Golgi preparations isolated from human A375 malignant melanoma skin cells (Homo sapiens (Human), UniProt Q16739). Briefly: UDP-Glo glucosylceramide synthase biochemical assay. The settings on record: 1.5 μg crude golgi preparation from A375 cells; C6 ceramide and UDP-glucose at 2×Km; 20 h incubation at room temperature; UDP detected by luminescence. The text has this: UDP-Glo™ Glucosylceramide Synthase Biochemical Assay
A UDP-Glo™ glucosylceramide synthase biochemical assay was utilized to evaluate the effect of test compounds on the activity of endogenous levels of GCS enzyme contained within Golgi preparations isolated from human A375 malignant melanoma skin cells. The UDP-Glo™ glucosylceramide synthase assay uses UDP-Glucose as a nucleotide-glycosyl donor and ceramide as substrate acceptor molecules. In the reaction, glucosylceramide synthase (GCS) transfers glucose from UDP-Glucose to ceramide. Glucosylceramide and UDP are released as products.
Using Promega's UDP-Glo™ Glycosyltransferase assay kit (Promega Corporation, Madison, WI, USA (Promega)), GCS activity was indirectly measured by detecting the amount of UDP produced. An aliquot of GCS enzyme (1.5 μg crude golgi preparation, total protein) and titrated test compound were aliquoted to each well and incubated for 30 minutes at room temperature. Substrate mixture was prepared by mixing C6 ceramide (Avanti Polar Lipids, Alabaster, AL USA (Avanti)) (micelles prepared at 0.6 mM in 0.6 mM DOPC) and UDP-glucose (20 μ.M; Promega), at concentrations equivalent to 2×Km, in assay buffer (25 mM HEPES (pH 7.5), 50 mM KCl, 5 mM MgCl2). An equivalent volume of substrate mixture was then added to each well. Following a 20 h incubation at room temperature to allow for GCS turnover of substrate, an equal volume of UDP detection reagent (Promega) was added to each well and incubated for an additional 75 minutes at room temperature to simultaneously convert the accumulated UDP product into ATP and generate light in a luciferase reaction. The generated light was detected using a luminometer. […] luminescence values (RLUs) were normalized to mean “min” and “max” effects, as determined on each plate. “Min” was defined as the mean of the values of the wells treated with vehicle (DMSO) and which represent 0% inhibition; “max” was defined as the mean of the values of the wells treated with a reference inhibitor and which represent the 100% effect. Values for % Emax and EC50 were determined by best-fitting the normalized data to a curve in Activity Base along a four-parameter logistic nonlinear regression (4PL) model (based on the Levenberg-Marquardt algorithm and defined by the equation below): […]
where: n is 4PMin (bottom of the curve); m is 4PMax (top of the curve); i is IP (inflection point of curve); and p is slope. See Levenberg, K., “A Method for the Solution of Certain Problems in Least Squares”, Quart. Appl. Math. 2, (1944), pp 164-168 and Marquardt, D., “An Algorithm for Least Squares Estimation on Nonlinear Parameters”, SIAM J. Appl. Math. 11, (1963) pp 431-441.

pEC50: −log10 of the molar value.

Sequence of GCS enzyme (glucosylceramide synthase) contained within Golgi preparations isolated from human A375 malignant melanoma skin cells (Q16739 whole entry): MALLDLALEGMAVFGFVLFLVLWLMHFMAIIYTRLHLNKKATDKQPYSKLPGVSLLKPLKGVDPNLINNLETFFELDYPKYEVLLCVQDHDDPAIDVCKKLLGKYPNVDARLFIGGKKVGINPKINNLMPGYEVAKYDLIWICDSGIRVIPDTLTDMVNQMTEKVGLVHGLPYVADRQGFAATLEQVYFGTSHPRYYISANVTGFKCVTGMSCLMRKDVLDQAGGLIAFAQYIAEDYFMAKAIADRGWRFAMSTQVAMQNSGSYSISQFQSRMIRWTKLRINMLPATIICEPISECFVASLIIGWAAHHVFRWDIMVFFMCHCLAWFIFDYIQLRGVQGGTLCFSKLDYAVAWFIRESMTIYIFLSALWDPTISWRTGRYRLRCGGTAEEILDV

As to `CC(CO)C12CC(NC(=O)c3cc4cccc(-c5ccccc5OCC(F)(F)F)c4o3)(C1)C2` (racemic) [Compound 9, (R and S)-N-[3-(2-hydroxy-1-methyl-ethyl)-1-bicyclo[1.1.1]pentanyl]-7-[2-(2,2,2-trifluoroethoxy)phenyl] benzofuran-2-carboxamide], the negative-log EC50 (pEC50) (commonly −log10 of the EC50, conventionally taken in molar units) was 8.77.

In turn, `O=C(NC1CNCCC1(F)F)c1cc2cccc(-c3ccccc3OCC(F)(F)F)c2o1` (racemic) [Compound 14, (R and S)-N-(4,4-difluoro-3-piperidyl)-7-[2-(2,2,2-trifluoroethoxy)phenyl] benzofuran-2-carboxamide] gave a pEC50 of 9.32.

In turn, `O=C(NC1CN2CCC1CC2)c1cc2cc(Cl)cc(-c3ccccc3OCCF)c2o1` (racemic) [Compound 20, (R and S)-5-chloro-7-[2-(2-fluoroethoxy)phenyl]-N-quinuclidin-3-yl-benzofuran-2-carboxamide] gave a pEC50 of 10.70.

Regarding `CCCCOc1ccccc1-c1cccc2cc(C(=O)NC3CN4CCC3CC4)oc12` (racemic) [Compound 21, (R and S)-7-(2-butoxyphenyl)-N-quinuclidin-3-yl-benzofuran-2-carboxamide], the pEC50 was 10.68.

In turn, `CCCOc1ccccc1-c1cccc2cc(C(=O)NC3CN4CCC3CC4)oc12` (racemic) [Compound 23, (R and S)-7-(2-propoxyphenyl)-N-quinuclidin-3-yl-benzofuran-2-carboxamide] showed a pEC50 of 10.36.

`Cc1nn(C)c(C)c1-c1cccc2cc(C(=O)NC3CN4CCC3CC4)oc12` (racemic) [Compound 37, (R and S)-N-(quinuclidin-3-yl)-7-(1,3,5-trimethyl-1H-pyrazol-4-yl)benzofuran-2-carboxamide] showed a pEC50 of 8.62.

Molecule `O=C(NC1CNCCC1(F)F)c1nc2cccc(-c3ccccc3OCC(F)(F)F)c2o1` (racemic) [Compound 39, (R and S)-N-(4,4-difluoropiperidin-3-yl)-7-(2-(2,2,2-trifluoroethoxy)phenyl)benzo[d]oxazole-2-carboxamide] showed a pEC50 of 7.36.

In turn, `O=C(N[C@@H]1CNCC[C@H]1F)c1cc2cccc(-c3ccccc3OCC(F)(F)F)c2o1` (relative stereo) [Compound 15, N-(trans-4-fluoro-3-piperidyl)-7-[2-(2,2,2-trifluoroethoxy)phenyl] benzofuran-2-carboxamide] had a negative logarithm of the EC50 (pEC50) of 8.77.

In turn, `CCCOc1ccccc1-c1cccc2cc(C(=O)NC3CCNCC3(F)F)oc12` (single isomer, unassigned) [Compound 18, N-[(4R or 4S)-3,3-difluoro-4-piperidyl]-7-(2-propoxyphenyl)benzofuran-2-carboxamide] gave a pEC50 of 6.85.

In the case of `CCCOc1ccccc1-c1cccc2cc(C(=O)NC3CNCCC3(F)F)oc12` (single isomer, unassigned) [Compound 36, (R or S)-N-(4,4-difluoro-3-piperidyl)-7-(2-propoxyphenyl)benzofuran-2-carboxamide], the pEC50 was 8.85.

The molecule `O=C(N[C@H]1CC[C@H](CO)CC1)c1cc2cc(F)cc(-c3ccccc3OCC(F)(F)F)c2o1` [Compound 1, 5-fluoro-N-(trans-4-(hydroxymethyl)cyclohexyl)-7-(2-(2,2,2-trifluoroethoxy)phenyl) benzofuran-2-carboxamide] gave a pEC50 of 9.00.

On to `Cc1nn(C)c(C)c1-c1cccc2cc(C(=O)Nc3ccc4cnccc4n3)oc12` [Compound 2, N-(1,6-naphthyridin-2-yl)-7-(1,3,5-trimethylpyrazol-4-yl)benzofuran-2-carboxamide], for which the pEC50 was 10.19.

Turning to `COc1ccc(C#N)cc1-c1cccc2cc(C(=O)NC34CCC(O)(CC3)C4)oc12` [Compound 3, 7-(5-cyano-2-methoxy-phenyl)-N-(4-hydroxynorbornan-1-yl)benzofuran-2-carboxamide], the pEC50 is 10.01.

Regarding `N#Cc1ccc(OC(F)F)c(-c2cccc3cc(C(=O)NC45CCC(O)(CC4)C5)oc23)c1` [Compound 4, 7-[5-cyano-2-(difluoromethoxy)phenyl]-N-(4-hydroxynorbornan-1-yl)benzofuran-2-carboxamide], the pEC50 is 10.00.

With `COc1ccc(C#N)cc1-c1cc(Cl)cc2cc(C(=O)N[C@@H]3CC[C@H](O)C3)oc12` [Compound 5, 5-chloro-7-(5-cyano-2-methoxy-phenyl)-N-[(1R,3S)-3-hydroxycyclopentyl] benzofuran-2-carboxamide], the pEC50 was 9.77.

`O=C(NC12CCC(O)(CC1)C2)c1cc2cccc(-c3cc(Cl)cnc3OC(F)F)c2o1` [Compound 6, 7-[5-chloro-2-(difluoromethoxy)-3-pyridyl]-N-(4-hydroxynorbornan-1-yl)benzofuran-2-carboxamide] had a pEC50 of 9.06.

For `O=C(Nc1cccnc1)c1cc2cccc(-c3ccccc3OCC(F)(F)F)c2o1` [Compound 7, N-(3-pyridyl)-7-[2-(2,2,2-trifluoroethoxy)phenyl] benzofuran-2-carboxamide], the pEC50 was 9.00.

`COc1ncc(Cl)cc1-c1cccc2cc(C(=O)NC34CCC(O)(CC3)C4)oc12` [Compound 8, 7-(5-chloro-2-methoxy-3-pyridyl)-N-(4-hydroxynorbornan-1-yl)benzofuran-2-carboxamide] had a pEC50 of 8.96.

With `O=C(NC1CCC(O)CC1F)c1cc2cccc(-c3ccccc3OCC(F)(F)F)c2o1` (centres unmarked) [Compound 11, N-(2-fluoro-4-hydroxy-cyclohexyl)-7-[2-(2,2,2-trifluoroethoxy)phenyl] benzofuran-2-carboxamide], the pEC50 is 8.15.

Molecule `Cc1cccc(NC(=O)c2cc3cccc(-c4c(C)nn(C)c4C)c3o2)n1` [Compound 12, N-(6-methyl-2-pyridyl)-7-(1,3,5-trimethylpyrazol-4-yl)benzofuran-2-carboxamide] had a pEC50 of 7.68.

Turning to `CCCCOc1ccccc1-c1cccc2cc(C(=O)NC(C)(C)CO)oc12` [Compound 13, 7-(2-butoxyphenyl)-N-(2-hydroxy-1,1-dimethyl-ethyl)benzofuran-2-carboxamide], the pEC50 is 7.55.

Regarding `O=C(NC12CCC(CO)(CC1)CC2)c1cc2cc(F)cc(-c3ccccc3OCC(F)(F)F)c2o1` [Compound 17, 5-fluoro-N-[4-(hydroxymethyl)-1-bicyclo[2.2.2]octanyl]-7-[2-(2,2,2-trifluoroethoxy)phenyl] benzofuran-2-carboxamide], the negative logarithm of the EC50 (pEC50) is 9.05.

The molecule `COc1ccc(C#N)cc1-c1cccc2cc(C(=O)N[C@@H]3CC[C@H](O)C3)oc12` [Compound 19, 7-(5-cyano-2-methoxyphenyl)-N-((1R,3S)-3-hydroxycyclopentyl)benzofuran-2-carboxamide] gave a pEC50 of 9.59.

Consider `O=C(Nc1ccc2cnccc2n1)c1cc2cccc(-c3ccccc3OCC(F)(F)F)c2o1` [Compound 22, N-(1,6-naphthyridin-2-yl)-7-[2-(2,2,2-trifluoroethoxy)phenyl] benzofuran-2-carboxamide], for which the pEC50 is 10.64.

`CC(C)Oc1ccc(C#N)cc1-c1cc(Cl)cc2cc(C(=O)N[C@H]3C[C@@H](O)C3)oc12` [Compound 24, Cis-5-chloro-7-(5-cyano-2-isopropoxy-phenyl)-N-(3-hydroxycyclobutyl) benzofuran-2-carboxamide] showed a pEC50 of 10.36.

Molecule `N#Cc1ccc(Cl)c(-c2cccc3cc(C(=O)N[C@@H]4CC[C@H](O)C4)oc23)c1` [Compound 25, 7-(2-chloro-5-cyano-phenyl)-N-[(1R,3S)-3-hydroxycyclopentyl] benzofuran-2-carboxamide] had a pEC50 of 10.33.
